Assay results published in patent US6355799B1, “Substituted benzene compounds, process for their preparation, and herbicidal and defoliant compositions containing them” (ISK Americas Incorporated, priority 1997, dated 2002).

Tests used:
Format in all cases: in vivo
[1] = system: redroot pigweed (Amaranthus retroflexus, AMARE); assay: Pre-emerge test, greenhouse herbicide activity screening; conditions: pre-emerge, rated 14 days after application, 0 = no damage, 100 = complete death
Method in brief: (§1)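 Compounds in acetone were track-sprayed at 15-1000 g ai/ha (187 l/ha) on sandy loam pots: pre-emerge one day after seeding, post-emerge at 2-3 leaf stage with 0.25% v/v non-ionic surfactant. Phytotoxicity was rated 14 days later on a 0 (no damage) to 100 (complete death) scale.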

[2] = system: barnyardgrass (Echinochloa crus-galli, ECHCG); assay: as above; conditions: pre-emerge, rated 14 days after application, 0 = no damage, 100 = complete death
Method in brief: (§2)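 Herbicidal damage is scored 0 (none) to 100 (complete plant death) two weeks after a simulated field spray. Rates span 15–1000 g ai/ha, delivered in acetone at 187 l/ha. For post-emergence treatments, plants have 2–3 leaves and the spray carries 0.25% v/v non-ionic surfactant.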

[3] = system: green foxtail (Setaria viridis, SETVI); assay: as above; conditions: pre-emerge, rated 14 days after application, 0 = no damage, 100 = complete death
Method in brief: as §2

[4] = system: ivyleaf morningglory (Ipomoea hederacea, IPOHE); assay: as above; conditions: pre-emerge, rated 14 days after application, 0 = no damage, 100 = complete death
Method in brief: as §2

[5] = system: johnsongrass (Sorghum halepense, SORHA); assay: as above; conditions: pre-emerge, rated 14 days after application, 0 = no damage, 100 = complete death
Method in brief: as §2

[6] = system: lambsquarters (Chenopodium album, CHEAL); assay: as above; conditions: pre-emerge, rated 14 days after application, 0 = no damage, 100 = complete death
Method in brief: as §2

[7] = system: large crabgrass (Digitaria sanguinalis, DIGSA); assay: as above; conditions: pre-emerge, rated 14 days after application, 0 = no damage, 100 = complete death
Method in brief: as §2

[8] = system: sicklepod (Cassia obtusifolia, CASOB); assay: as above; conditions: pre-emerge, rated 14 days after application, 0 = no damage, 100 = complete death
Method in brief: as §2

[9] = system: velvetleaf (Abutilon theophrasti, ABUTH); assay: as above; conditions: pre-emerge, rated 14 days after application, 0 = no damage, 100 = complete death
Method in brief: as §2

[10] = system: field corn (Zea mays L., var. Dekalb 535, CORN); assay: Pre-emerge test, crop safety; conditions: pre-emerge, rated 14 days after application, 0 = no damage, 100 = complete death
Method in brief: (§3)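 Visual ratings on a 0-100 scale (0 no damage, 100 all plants dead) were taken at 14 days after treatment. Rates of 15-1000 g ai/ha in acetone, 187 l/ha, were sprayed onto soil one day after planting (pre-emerge) or onto 2-3 leaf plants with 0.25% v/v surfactant (post-emerge).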

[11] = system: upland rice (Oryza sp., var. Tebonnet, RICE); assay: Pre-emerge test, crop safety; conditions: pre-emerge, rated 14 days after application, 0 = no damage, 100 = complete death
Method in brief: as §3

[12] = system: barnyardgrass (Echinochloa crus-galli, ECHCG); assay: Post-emerge test, greenhouse herbicide activity screening; conditions: phytotoxicity rating 0-100 (0 no damage, 100 complete death), 14 days after application
Method in brief: as §1

[13] = system: common ragweed (Ambrosia artemisizfolia L., AMBEL); assay: as above; conditions: phytotoxicity rating 0-100 (0 no damage, 100 complete death), 14 days after application
Method in brief: as §1

[14] = system: green foxtail (Setaria viridis, SETVI); assay: as above; conditions: phytotoxicity rating 0-100 (0 no damage, 100 complete death), 14 days after application
Method in brief: as §1

[15] = system: ivyleaf morningglory (Ipomoea hederacea, IPOHE); assay: as above; conditions: phytotoxicity rating 0-100 (0 no damage, 100 complete death), 14 days after application
Method in brief: as §1

[16] = system: johnsongrass (Sorghum halepense, SORHA); assay: as above; conditions: phytotoxicity rating 0-100 (0 no damage, 100 complete death), 14 days after application
Method in brief: as §1

[17] = system: lambsquarters (Chenopodium album, CHEAL); assay: as above; conditions: phytotoxicity rating 0-100 (0 no damage, 100 complete death), 14 days after application
Method in brief: as §1

[18] = system: large crabgrass (Digitaria sanguinalis, DIGSA); assay: as above; conditions: phytotoxicity rating 0-100 (0 no damage, 100 complete death), 14 days after application
Method in brief: as §1

[19] = system: redroot pigweed (Amaranthus retroflexus, AMARE); assay: as above; conditions: phytotoxicity rating 0-100 (0 no damage, 100 complete death), 14 days after application
Method in brief: as §1

[20] = system: sicklepod (Cassia obtusifolia, CASOB); assay: as above; conditions: phytotoxicity rating 0-100 (0 no damage, 100 complete death), 14 days after application
Method in brief: as §1

[21] = system: velvetleaf (Abutilon theophrasti, ABUTH); assay: as above; conditions: phytotoxicity rating 0-100 (0 no damage, 100 complete death), 14 days after application
Method in brief: as §1

[22] = system: field corn (Zea mays L., var. Dekalb 535, CORN); assay: Post-emerge test, crop safety; conditions: phytotoxicity rating 0-100 (0 no damage, 100 complete death), 14 days after application
Method in brief: as §2

[23] = system: upland rice (Oryza sp., var. Tebonnet, RICE); assay: Post-emerge test, crop safety; conditions: phytotoxicity rating 0-100 (0 no damage, 100 complete death), 14 days after application
Method in brief: as §2

COc1c(Cl)cc(F)c(-n2c(=O)cc(C(F)(F)F)n(C)c2=O)c1N=CN(C)C [Compound 1-31, 3-[4-chloro-2-(dimethylaminomethynyl)imino-6-fluoro-3-methoxyphenyl]-1-methyl-6-trifluoromethyl-2,4(1H, 3H)-pyrimidinedione]
Pre-emerge Herbicidal Activity AMARE (phytotoxicity rating, scale 0-100) ([1]; 63 g ai/ha): 80
Pre-emerge Herbicidal Activity AMARE (phytotoxicity rating, scale 0-100) ([1]; 250 g ai/ha): 100
Pre-emerge Herbicidal Activity ECHCG (phytotoxicity rating, scale 0-100) ([2]; 63 g ai/ha): 0
Pre-emerge Herbicidal Activity ECHCG (phytotoxicity rating, scale 0-100) ([2]; 250 g ai/ha): 40
Pre-emerge Herbicidal Activity SETVI (phytotoxicity rating, scale 0-100) ([3]; 63 g ai/ha): 50
Pre-emerge Herbicidal Activity SETVI (phytotoxicity rating, scale 0-100) ([3]; 250 g ai/ha): 100
Pre-emerge Herbicidal Activity IPOHE (phytotoxicity rating, scale 0-100) ([4]; 63 g ai/ha): 0
Pre-emerge Herbicidal Activity IPOHE (phytotoxicity rating, scale 0-100) ([4]; 250 g ai/ha): 80
Pre-emerge Herbicidal Activity SORHA (phytotoxicity rating, scale 0-100) ([5]; 63 g ai/ha): 0
Pre-emerge Herbicidal Activity SORHA (phytotoxicity rating, scale 0-100) ([5]; 250 g ai/ha): 90
Pre-emerge Herbicidal Activity CHEAL (phytotoxicity rating, scale 0-100) ([6]; 63 g ai/ha): 95
Pre-emerge Herbicidal Activity CHEAL (phytotoxicity rating, scale 0-100) ([6]; 250 g ai/ha): 100
Pre-emerge Herbicidal Activity DIGSA (phytotoxicity rating, scale 0-100) ([7]; 63 g ai/ha): 0
Pre-emerge Herbicidal Activity DIGSA (phytotoxicity rating, scale 0-100) ([7]; 250 g ai/ha): 90
Pre-emerge Herbicidal Activity CASOB (phytotoxicity rating, scale 0-100) ([8]; 63 g ai/ha): 70
Pre-emerge Herbicidal Activity CASOB (phytotoxicity rating, scale 0-100) ([8]; 250 g ai/ha): 95
Pre-emerge Herbicidal Activity ABUTH (phytotoxicity rating, scale 0-100) ([9]; 63 g ai/ha): 100
Pre-emerge Herbicidal Activity ABUTH (phytotoxicity rating, scale 0-100) ([9]; 250 g ai/ha): 100
Pre-emerge crop damage CORN (phytotoxicity rating, scale 0-100) ([10]; 63 g ai/ha): 0
Pre-emerge crop damage CORN (phytotoxicity rating, scale 0-100) ([10]; 250 g ai/ha): 50
Pre-emerge crop damage RICE (phytotoxicity rating, scale 0-100) ([11]; 63 g ai/ha): 0
Pre-emerge crop damage RICE (phytotoxicity rating, scale 0-100) ([11]; 250 g ai/ha): 10
Post-emerge Herbicidal Activity ECHCG ([12]; 63 g ai/ha): 0
Post-emerge Herbicidal Activity ECHCG ([12]; 250 g ai/ha): 0
Post-emerge Herbicidal Activity AMBEL ([13]; 63 g ai/ha): 0
Post-emerge Herbicidal Activity AMBEL ([13]; 250 g ai/ha): 0
Post-emerge Herbicidal Activity SETVI ([14]; 63 g ai/ha): 0
Post-emerge Herbicidal Activity SETVI ([14]; 250 g ai/ha): 0
Post-emerge Herbicidal Activity IPOHE ([15]; 63 g ai/ha): 10
Post-emerge Herbicidal Activity IPOHE ([15]; 250 g ai/ha): 50
Post-emerge Herbicidal Activity SORHA ([16]; 63 g ai/ha): 0
Post-emerge Herbicidal Activity SORHA ([16]; 250 g ai/ha): 0
Post-emerge Herbicidal Activity CHEAL ([17]; 63 g ai/ha): 0
Post-emerge Herbicidal Activity CHEAL ([17]; 250 g ai/ha): 40
Post-emerge Herbicidal Activity DIGSA ([18]; 63 g ai/ha): 0
Post-emerge Herbicidal Activity DIGSA ([18]; 250 g ai/ha): 0
Post-emerge Herbicidal Activity AMARE ([19]; 63 g ai/ha): 10
Post-emerge Herbicidal Activity AMARE ([19]; 250 g ai/ha): 30
Post-emerge Herbicidal Activity CASOB ([20]; 63 g ai/ha): 0
Post-emerge Herbicidal Activity CASOB ([20]; 250 g ai/ha): 0
Post-emerge Herbicidal Activity ABUTH ([21]; 63 g ai/ha): 20
Post-emerge Herbicidal Activity ABUTH ([21]; 250 g ai/ha): 50
Post-emerge Herbicidal Activity CORN (crop damage) ([22]; 63 g ai/ha): 0
Post-emerge Herbicidal Activity CORN (crop damage) ([22]; 250 g ai/ha): 0
Post-emerge Herbicidal Activity RICE (crop damage) ([23]; 63 g ai/ha): 0
Post-emerge Herbicidal Activity RICE (crop damage) ([23]; 250 g ai/ha): 10
